This is an account of results in ChEMBL document CHEMBL1201862, “PubChem BioAssay data set” (2004).

What all share (assay): NCI-60 cell line screen, 48 h
Assay [1] concerns COLO 205.
The subject of assay [2] is SW-620.
Assay [3] concerns DU-145.
For assay [4], the system named is OVCAR-4.
Assay [5] deals with SK-MEL-28.
For assay [6], the system named is KM12.
The test system of assay [7] is OVCAR-8.
In assay [8] the test system is HCC 2998.
Assay [9] relates to K562.
The subject of assay [10] is NCI-H522.
In assay [11] the test system is NCI-H226.
Assay [12] deals with 786-0.
Assay [13] concerns M14.
Assay [14] deals with SR.
Assay [15] concerns UO-31.
Assay [16] concerns PC-3.
Assay [17] relates to RXF 393.
For assay [18], the system named is A549.
In assay [19] the test system is HOP-92.

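Results reflect a 48-hour exposure of cells in 96-well plates to compound at five concentrations. The concentration for 50% growth inhibition is given as GI50.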 Calls of active or inactive are those of the source. Cut-off read from the data, not from the text of the source: active = GI50 up to about 1.1 µM and inactive = higher. Bridge positions count the residues as written; N and C are the ends. Square brackets hold non-standard residues; d marks the D form. Peptide text beside a SMILES is read from it. * marks the point of attachment. Cya = N[CH](CS(=O)(=O)O)C(=O)O; X49 = CC(C)CCCCCCCC(O)CC(=O)*; GABA = NCCCC(=O)O

Take `CC1(C)OC(=O)C(Cc2ccccc2)(Cc2ccccc2)C(=O)O1`: the GI50 in [1], in assay [2], in assay [3], in [4], in assay [5] and in assay [6] was > 100 µM (inactive) in each case. Further, the GI50 in [7], in assay [8], in assay [9], in assay [10], in assay [11] and in [12] was > 100 µM (inactive) throughout. Moreover, the GI50 is > 100 µM (inactive) in [13]; > 100 µM (inactive) in [14]; > 100 µM (inactive) in assay [15]; > 100 µM (inactive) in assay [16]; 3.58 µM (inactive) in [17]; > 100 µM (inactive) in assay [18].
`CC(C)CCCCCCCC(O)CC(=O)NC(CS(=O)(=O)O)C(=O)NC(CC(C)C)C(=O)NCCCC(=O)NC(Cc1c[nH]cn1)C(=O)NC(C)C(=O)NC1C(=O)NC(C(C)O)C(=O)NC(Cc2c[nH]cn2)C(=O)NC(C)C(=O)NC(C(C)O)C(=O)OC1C` (stereo unspecified) (X49-[Cya]L[GABA]HATTHAT; ester 6-C; configuration not given here): the GI50 in assay [1], in assay [2], in [3], in assay [4], in [5] and in assay [6] was > 25 µM (inactive) each time. The GI50 in [19], in assay [7], in [8], in assay [9], in assay [10] and in assay [11] was > 25 µM (inactive) each time. Moreover, the GI50 in assay [12] was > 25 µM (inactive); in assay [13] it was > 25 µM (inactive); in assay [14], 17.5 µM (inactive); in assay [15] it was > 25 µM (inactive); in assay [16], > 25 µM (inactive); in assay [18], > 25 µM (inactive).
In the case of `Cn1c(=O)c2nc[nH]c2n(C)c1=O` [THEOPHYLLINE], the GI50 in assay [1], in [2], in assay [3], in assay [5], in assay [6] and in assay [19] was > 100 µM (inactive) each time. Moreover, the GI50 in [7], in assay [8], in [9], in assay [10], in assay [11] and in assay [12] was > 100 µM (inactive) in each case. Moreover, the GI50 in assay [13], in [14], in assay [15], in assay [16] and in assay [18] was > 100 µM (inactive) throughout.
In the case of `CN1C(=O)c2c(c3c4ccccc4n(C)c3c3c2c2ccccc2n3C)C1=O`, the GI50 in [1], in assay [2], in assay [3], in assay [4], in assay [5] and in assay [6] was > 100 µM (inactive) in each case. The GI50 in assay [19], in assay [7], in assay [8], in [9], in assay [10] and in assay [11] was > 100 µM (inactive) in each case. Moreover, the GI50 is > 100 µM (inactive) in [12]; > 100 µM (inactive) in assay [13]; 67.3 µM (inactive) in assay [14]; > 100 µM (inactive) in assay [15]; > 100 µM (inactive) in assay [16]; > 100 µM (inactive) in [18].
Take `O=C1CC(=O)N(C2CCCCC2)C(=O)N1c1ccccc1S(=O)(=O)Oc1ccccc1`: the GI50 in assay [1], in assay [2], in [3], in assay [4], in [5] and in [6] was > 100 µM (inactive) throughout. The GI50 was 12.9 µM (inactive) in assay [19]; > 100 µM (inactive) in assay [7]; > 100 µM (inactive) in assay [8]; 26.9 µM (inactive) in assay [9]; 18.1 µM (inactive) in [12]; > 100 µM (inactive) in [13]. Besides, the GI50 in assay [14] was > 100 µM (inactive); in assay [15] it was 18.1 µM (inactive); in assay [16], > 100 µM (inactive); in [17], > 100 µM (inactive); in assay [18] it was > 100 µM (inactive).
`CC1(C)CC(=O)C(Cc2ccccc2)(Cc2ccccc2)C(=O)C1`: the GI50 in assay [1], in assay [2], in [3], in assay [4], in assay [5] and in assay [6] was > 100 µM (inactive) in each case. The GI50 in assay [7], in assay [8], in assay [9], in assay [10], in assay [11] and in [12] was > 100 µM (inactive) in each case. Also, the GI50 in assay [13] was > 100 µM (inactive); in assay [14], > 100 µM (inactive); in [15] it was > 100 µM (inactive); in assay [16], > 100 µM (inactive); in assay [17], 33.8 µM (inactive); in assay [18], > 100 µM (inactive).
As for `COc1cccc(C(=O)O[C@H]2[C@@H]3[C@]4(OC(C)=O)CO[C@@H]4C[C@H](O)[C@@]3(C)C(=O)[C@H](OC(C)=O)C3=C(C)[C@@H](OC(=O)[C@H](O)[C@@H](NC(=O)OC(C)(C)C)c4ccco4)C[C@]2(O)C3(C)C)c1`, the GI50 in [1] is < 0.00375 µM (active); in assay [2], < 0.00375 µM (active); in assay [3], < 0.00375 µM (active); in [4] it was 6.32 µM (inactive); in assay [5] it was 3.82 µM (inactive); in assay [6], < 0.00375 µM (active). Besides, the GI50 in [7] is < 0.00375 µM (active); in assay [8] it was < 0.00375 µM (active); in assay [9] it was < 0.00375 µM (active); in assay [10], < 0.00375 µM (active); in [11], 0.36 µM (active); in assay [12], 0.00522 µM (active). Also, the GI50 in [13] was < 0.00375 µM (active); in assay [14], < 0.00375 µM (active); in assay [15], < 0.00375 µM (active); in [16] it was < 0.00375 µM (active); in assay [17] it was 0.00726 µM (active); in assay [18], < 0.00375 µM (active).
As to `COc1cc(C2C3=C(COC3=O)OC(C)(C)Oc3cc4c(cc32)OCO4)cc(OC)c1O` (stereo unspecified), the GI50 in assay [1] is 2.44 µM (inactive); in assay [2] it was 0.608 µM (active); in assay [3], 1.39 µM (inactive); in assay [4], > 38.8 µM (inactive); in [5], 0.973 µM (active); in assay [6] it was 0.531 µM (active). For the same molecule, the GI50 in assay [19] is 0.392 µM (active); in assay [7] it was 0.964 µM (active); in [8] it was 2.27 µM (inactive); in assay [9] it was 0.383 µM (active); in assay [10], 0.244 µM (active); in assay [12], 1.12 µM (active). Also, the GI50 in assay [13] is 1.09 µM (active); in assay [14], 1.01 µM (active); in assay [15], 7.1 µM (inactive); in assay [16], 0.444 µM (active); in [17], 0.122 µM (active); in [18] it was 0.944 µM (active).
As for `CN(c1ccccc1Cl)S(=O)(=O)c1ccccc1[N+](=O)[O-]`, the GI50 was 34.2 µM (inactive) in assay [1]; 78.9 µM (inactive) in assay [2]; 91.6 µM (inactive) in assay [3]; > 100 µM (inactive) in [4]; 39.6 µM (inactive) in assay [5]; 38.9 µM (inactive) in assay [6]. Also, the GI50 was 56.8 µM (inactive) in assay [7]; 34.7 µM (inactive) in [8]; 21.3 µM (inactive) in [9]; 32.7 µM (inactive) in assay [10]; 41.5 µM (inactive) in assay [11]; 58.9 µM (inactive) in assay [12]. Besides, the GI50 was 17.3 µM (inactive) in assay [13]; 35.5 µM (inactive) in [14]; 31.6 µM (inactive) in [15]; 24.7 µM (inactive) in assay [16]; 29 µM (inactive) in assay [17]; 37.2 µM (inactive) in [18].
Regarding `O=C(NS(=O)(=O)Nc1ccc(Cl)cc1)OCc1ccc(Cl)cc1Cl`, the GI50 in [1] is 16.7 µM (inactive); in assay [2], 33.3 µM (inactive); in assay [3], 21.3 µM (inactive); in [4], 24 µM (inactive); in assay [5], 29.6 µM (inactive); in assay [6], 21.4 µM (inactive). In addition, the GI50 in assay [19] is 24.7 µM (inactive); in assay [7] it was 31.3 µM (inactive); in assay [8], 12.1 µM (inactive); in assay [9] it was 28.4 µM (inactive); in assay [12], 34.6 µM (inactive); in [13], 41 µM (inactive). For the same molecule, the GI50 in assay [14] is 38.2 µM (inactive); in assay [15], 17.5 µM (inactive); in assay [16], 31.4 µM (inactive); in assay [18], 21.8 µM (inactive).
For the molecule `CCOC(=O)C1c2[nH]c3ccccc3c2CCN1C(=O)c1ccco1` (stereo unspecified), the GI50 in [1], in assay [2], in assay [3], in assay [4], in assay [5] and in assay [6] was > 10 µM (inactive) throughout. Further, the GI50 in [19], in assay [7], in assay [8], in [9], in assay [12] and in assay [13] was > 10 µM (inactive) throughout. In addition, the GI50 in assay [14], in assay [16] and in assay [18] was > 10 µM (inactive) throughout.
